The subject of one assay is tumors. As to the kind of experiment: Solid stress after a panel of ARBs. It counts as in vivo. Conditions: 40 mg/kg losartan, 3.2 mg/kg candesartan, 32 mg/kg valsartan. As to the method:
Solid stress levels in tumors after angiotensin inhibition using the ARBs losartan, candesartan, and valsartan are shown. Doses were chosen based on their relative doses in patients for hypertension indications (40 mg/kg losartan, 3.2 mg/kg candesartan, 32 mg/kg valsartan). […] Animal numbers n=6-7. Statistical tests were corrected for multiple comparisons using the Holm-Bonferroni method.
The mechanism responsible for the increase in tumor vessel perfusion by losartan was investigated. Desmoplasia, high stromal cell and matrix density, is a major contributor to the solid stress accumulation that compresses vessels (Stylianopoulos T, et al., Growth-induced mechanical stress in murine and human tumors: causes, consequences and remedies. under review. 2012). Since angiotensin inhibitors reduce matrix production in tumors (Diop-Frimpong B, et al., Proc Natl Acad Sci USA. 2011; 108(7): 2909-14), it was hypothesized that they decompress vessels and increase perfusion by decreasing solid stress. Collagen levels were used as a metric of matrix production as described in Diop-Frimpong et al., Proc Nall Acad Sci USA. […] Moreover, losartan decreased collagen I concentration, measured based on staining intensity, in E0771 and AK4.4 tumors (FIGS. 24B-24C). Of note, dense collagen seemed to colocalize with low-perfusion areas (FIG. 24C). Next, solid stress in these tumors was measured using recently established technique described in Stylianopoulos T, et al., Growth-induced mechanical stress in murine and human tumors: causes, consequences and remedies. under review. 2012. […]
Solid stress: Solid stress was measured using the tumor opening technique as described previously (Stylianopoulos T, et al., Growth-induced mechanical stress in murine and human tumors: causes, consequences and remedies. under review. 2012). […] Subsequently, each tumor was excised, washed with Hanks' Balanced Salt Solution (HBSS) and its three dimensions were measured. […] Afterwards, the opening resulting from the cut was measured at the middle of the cut at the surface of the tumor. […]

Assay [1] deals with E0771 breast tumors. The assay is described as follows: Breast tumor growth and survival studies. It counts as in vivo, mice. As to the method:
(§1) Breast tumor growth and survival studies: Mice bearing orthotopic E0771 or 4T1 breast tumors were split into treatment groups, time-matched for time after implantation and size-matched for tumor volume at this time (110-111 mm^3 in E0771, in 4T1). […] The primary tumors were then measured every 2 days, beginning on day 0, using calipers. Tumor growth was quantified using the time for each to reach double its initial volume Animal survival was quantified based on time of death after initiation of treatment or time to reach excessive tumor burden (>1000 mm^3).

The next assay has as its system 4T1 breast tumors. As to the kind of experiment: Breast tumor growth and survival studies. It counts as in vivo, mice.
Excerpt: In FIG. 35B, the quantification of tumor growth rates, based on the time to reach double the initial volume, is shown.
In FIG. 35C, the animal survival following the initiation of treatment is shown. […] Statistical tests were corrected for multiple comparisons using the Holm-Bonferroni method.
as §1

The test system of another assay is E0771 tumors. The assay is described as follows: Solid stress (tumor opening technique). More on the design: species or system mice. Conditions: mouse, in vivo.
The test system of assay [2] is E0771 breast tumors. As to the kind of experiment: Tumor matrix level histology (collagen I). More on the design: species or system SCID mouse. Conditions: mouse, in vivo. As to the method:
Collagen levels were used as a metric of matrix production as described in Diop-Frimpong et al., Proc Nall Acad Sci USA. […] Next, solid stress in these tumors was measured using recently established technique described in Stylianopoulos T, et al., Growth-induced mechanical stress in murine and human tumors: causes, consequences and remedies. under review.
Vessel perfusion, matrix level, and hypoxia histology: For breast tumors, mice bearing orthotopic E0771 were split into treatment groups, time-matched for time after implantation and size-matched for tumor volume at this time (−100 mm^3). For pancreatic tumors, mice bearing orthotopic AK4.4 were split into treatment groups, size-matched for tumor volume (˜22 mm^3), 6 days after implantation. […] On the day of the last treatment, mice were slowly (−2 min) injected with 100 μL of 1 mg/mL biotinylated lectin (Vector Labs), administered retro-orbitally 5 min prior to tumor removal. For hypoxia studies, the mice were also injected with 60 mg/kg of 10 mg/mL pimonidazole 1 hr prior to tumor removal. […] For matrix staining, collagen I was detected using the LF-67 antibody provided by Dr. Larry Fisher (National Institute of Dental Research, Bethesda, Md.).
Histological image analysis: Eight random images (four interior, four periphery) at 20× magnification were taken from each slide using a confocal microscope (Olympus). […] For perfusion, the number of vessels counted by this program with colocalization of lectin and CD31 staining was divided by the number of vessels counted with CD31 staining. For vessel metrics, including diameter and density, the program determined the average size of all counted vessels and their length, as well as the count per area Images of collagen I stained sections were analyzed based on the area fraction of positive staining and on the average staining intensity (concentration) in each image. […] Images of hypoxia staining with pimonidazole were similarly analyzed for the area fraction of positive staining, counting the fraction of pixels above a threshold based on background intensity.

The mark [3] stands for this setting: agent given alone (losartan 40 mg/kg daily or doxorubicin 2 mg/kg every three days).

Procedure for E0771 tumors: Solid stress was assessed using an ex vivo technique involving the measurement of the extent of tumor tissue relaxation (tumor opening relative to tumor diameter) following a stress-releasing incision, with larger openings indicating higher stress.
When the tumors reached a size of −1 cm in diameter, the mice were anesthetized. Subsequently, each tumor was excised, washed with Hanks' Balanced Salt Solution (HBSS) and its three dimensions were measured. Each tumor was cut along its longest axis, to a depth of 80% of its shortest dimension, using a scalpel. The tumors were allowed to relax for 10 minutes in HBSS to diminish any transient, poro-elastic responses. Afterwards, the opening resulting from the cut was measured at the middle of the cut at the surface of the tumor. Solid stress is proportional to the size of the opening relative to the size of the dimension perpendicular to the cut.

Take `CCOc1nc2cccc(C(=O)O)c2n1Cc1ccc(-c2ccccc2-c2nnn[nH]2)cc1` [candesartan]: the solid stress entry in the assay with tumors is “reduce solid stress to a similar degree”.

For the compound `COc1cccc2c1C(=O)c1c(O)c3c(c(O)c1C2=O)C[C@@](O)(C(=O)CO)C[C@@H]3O[C@H]1C[C@H](N)[C@H](O)[C@H](C)O1` [doxorubicin], the tumor growth rate entry with E0771 breast tumors [1] (setting [3]) and with 4T1 breast tumors (setting [3]) was “no significant effect” throughout. Further, the median survival in the assay with E0771 breast tumors [1] (doxorubicin alone) was 16 days. Further, the survival result in the assay with 4T1 breast tumors (monotherapy) is reported as “improves survival”.

`NCCCC[C@H](N[C@@H](CCc1ccccc1)C(=O)O)C(=O)N1CCC[C@H]1C(=O)O` [lisinopril]: the solid stress result with E0771 tumors is reported as “reduces solid stress”. The “matrix production, collagen I area fraction” value in the assay with E0771 breast tumors [2] is listed as “decreases”.

Consider `CCCCC(=O)N(Cc1ccc(-c2ccccc2-c2nnn[nH]2)cc1)[C@H](C(=O)O)C(C)C` [valsartan], for which, in the assay on tumors, the solid stress entry is recorded as “reduce solid stress to a similar degree”.

Values taken from US20130287688A1, “NOVEL COMPOSITIONS AND USES OF ANTI-HYPERTENSION AGENTS FOR CANCER THERAPY” (XTUIT PHARMACEUTICALS, INC., priority 2010, published 2013).
